Measured values: article PMC5374206, “Anti-bacterial and Anti-biofilm Evaluation of Thiazolopyrimidinone Derivatives Targeting the Histidine Kinase YycG Protein of Staphylococcus epidermidis” (Frontiers in Microbiology, 2017)
Values after ≈ are worked out from the molar mass of the structure shown. Like-named read-outs stand apart in the source and are kept apart here.

Legend:
[1] = system: Enterococcus faecalis OG1RF; experiment: Standard tube-dilution assay against Enterococcus faecalis; assay type: cell-based; conditions: result in words
[2] = system: S. epidermidis ATCC 35984; experiment: Time-kill assay against fast-growing S. epidermidis; assay type: cell-based, Staphylococcus epidermidis; conditions: 4 × MIC; within/after 1 h; inoculum ~1 × 10^7 CFU/mL; MHB
Description: Suspensions of S. epidermidis (1 × 10^7 CFU/mL) were prepared and separately treated with the derivatives of compound 5 or vancomycin at concentrations of 4 × MIC in fresh MHB. Time-kill experiments were performed at 37°C with shaking at 220 rpm under aerobic conditions. Aliquots (1 mL) were removed from the culture medium at different time points (0, 1, 3, 5, 8, and 24 h), serially diluted and 100 μL of each of the dilutions plated out onto tryptic soy agar. After incubating at 37°C for 24 h, emergent bacterial colonies were counted, and the activity of the derivatives against fast-growing S. epidermidis cells was determined by plotting log10 colony counts (CFU/mL) against time. Bactericidal activity was defined as a 3-log10 decrease in CFU/mL. This assay was performed in triplicate and similar results were obtained.

Cytotoxicity MTT assay = assay type: cell-based; conditions: African green monkey, Vero cells, highest concentration tested 200 μM
Description: A Cell Proliferation Kit I (MTT; Roche, Indianapolis, USA) was used to detect the cytotoxicity of the derivatives against Vero cells. Vero cells were added to 96-well microtiter plates at a concentration of 5 × 10^4 cells/well in 100 μL of culture medium. After 24 h, culture medium was replaced by 100 μL serial dilutions of the derivatives (0.78–100 μM) and the cells were incubated for 4 h in an atmosphere of 5% CO2, then 10 μL of the MTT stock solution was added to each well and the plate returned to the 37°C incubator for 4 h. Subsequent to the incubation, the purple formazan salts were dissolved in DMSO, and the absorbance of each well was measured at wavelengths of 595 nm (test) and 655 nm (reference). Cells treated with the solvent (0.1% DMSO) were used as a blank control. The concentration of the derivatives that produced a 50% cytotoxicity effect on Vero cells (CC50) was calculated using Origin v8.0 software (Origin Lab, Northampton, USA).

[3] = Erythrocyte hemolysis assay; assay type: cell-based; conditions: human, erythrocytes (5% suspension), 37°C; for hemolysis at 1 h, 200 µM: at 200 μM; for hemolysis at 1 h: at MIC (against S epidermidis ATCC 35984)
Description: Hemolytic activities of the derivatives were measured on healthy human erythrocytes. A pure suspension of erythrocytes was obtained by washing a blood sample with sterile 0.9% NaCl saline solution. Erythrocytes were resuspended in normal saline to give a 5% solution, then treated with MIC, 4 × MIC or 200 μM of the derivatives for 1 h at 37°C in 96-well microtiter plates. After the incubation and centrifugation at 1,000 g for 10 min, supernatants were transferred to another sterile plate and the absorbance at 570 nm was measured on a spectrophotometric microplate reader. A positive control (100% hemolysis) and a negative control (0% hemolysis) were achieved by incubating with 1% Triton-X 100 and 0.1% DMSO, respectively. Each assay was performed in triplicate and repeated three times.

[4] = system: S. epidermidis ATCC 35984 mature biofilms; experiment: Cell viability in mature (24 h) biofilms by CLSM with Live/Dead staining; assay type: cell-based, Staphylococcus epidermidis; conditions: 4 × MIC, 16 h, 24 h mature biofilm; for PI fluorescence quantity (dead cells) / SYTO9 fluorescence quantity (viable cells): Image J
Description: The effect of the derivatives on cell viability in mature biofilms (24 h old) was determined using the Live/Dead Bacterial Viability method (Live/Dead BacLight, Molecular Probes, USA). […] The mature biofilms were stained with SYTO 9 and propidium iodide at room temperature for 15 min, following gentle washing of the dishes with normal saline, and were observed under a Leica TCS SP5 CLSM with a 63 × 1.4-NA oil-immersion objective. Further, image analysis was performed using IMARIS 7.0.0 software (Bitplane). The fluorescence quantities of biofilm were determined using Image J software. This assay was performed in triplicate and similar results were obtained.

[5] = system: S. epidermidis ATCC 35984; experiment: MIC and MBC tube-dilution assay; assay type: cell-based; conditions: Staphylococcus epidermidis; for MBC: ATCC35984, 99.9% reduction of inoculum; for MIC: ATCC35984, MHB, 16–20 h
Description: (§1) The MIC assays of the derivatives of compound 5 against S. epidermidis, S. aureus, MRSA and E. coli were performed by using the methods described previously by Wiegand et al. ([2008]). In brief, two-fold serial dilutions of the derivatives were prepared in tubes containing 4 mL MHB medium, yielding final concentrations from 200 to 0.78 μM. Bacterial cultures were grown overnight and adjusted so that the bacterial suspension turbidity was equivalent to a 0.5 McFarland standard (~1 × 10^8 CFU/mL) and further diluted to 1:200 into MHB medium. The contents in the tubes were mixed thoroughly and incubated at 37°C with shaking at 220 rpm for 16–20 h. The MIC endpoint was defined as the lowest concentration at which there was no visible growth in the tubes. The MBC values were assessed by plating 100 μL samples from each negative (no visible bacterial growth) culture tube from the MIC assays onto blank MHB agar plates. After incubation at 37°C for 24 h, the bacterial colonies on the plates were counted. The MBC was the concentration at which a 99.9% reduction of the original inoculum was observed (Pridmore et al., [2011]). In this assay, all the experiments were performed three times.

[6] = system: methicillin-resistant S. aureus (MRSA) clinical isolates; experiment: MIC and MBC against clinical MRSA isolates; assay type: cell-based; conditions: Staphylococcus aureus
Description: S. epidermidis ATCC 12228 (biofilm negative), S. epidermidis ATCC 35984 (biofilm positive), S. aureus ATCC 49230 and Escherichia coli ATCC 25922 were used in this study. Six clinical methicillin-resistant S. aureus (MRSA) isolates were collected from the Department of Clinical Laboratory, Shanghai General Hospital, School of Medicine, Shanghai Jiaotong University, China. Staphylococcal strains were grown in tryptic soy broth (TSB; Oxoid Ltd., Basingstoke, England), and E. coli strains were grown in Luria-Bertani broth medium. Mueller-Hinton broth (MHB; Oxoid Ltd., Basingstoke, England) was used for antimicrobial susceptibility testing. Vancomycin and ampicillin were obtained from the Sigma Chemical Co. (St Louis, MO, USA).
as §1

[7] = MRSA strain 66, ST239, read-out: MIC
[8] = MRSA strain 69, ST217, read-out: MIC
[9] = MRSA strain 141, ST5, read-out: MIC
[10] = MRSA strain 226, ST59, read-out: MIC
[11] = MRSA strain 258, ST239, read-out: MIC
[12] = MRSA strain 260, ST764, read-out: MIC
[13] = range over six isolates, read-out: MICs against six MRSA clinical isolates

Row | Structure (SMILES) | anti-bacterial activity [1] | reduction in CFU/mL [2] [log] | CC50 at 4 h (Cytotoxicity MTT assay) [µM] | hemolysis at 1 h, 200 µM [3] [%] | hemolysis at 1 h [3] [%] | PI/Total (reduction of the proportion of viable cells in mature biofilms) [4] [%] | PI fluorescence quantity (dead cells) [4] | SYTO9 fluorescence quantity (viable cells) [4] | MBC [5] [µM] | MIC [5] [µM] | MBC ([6]; MRSA strain 66, ST239) [µM] | MIC [6, 7] [µM] | MBC ([6]; MRSA strain 69, ST217) [µM] | MIC [6, 8] [µM] | MBC ([6]; MRSA strain 141, ST5) [µM] | MIC [6, 9] [µM] | MBC ([6]; MRSA strain 226, ST59) [µM] | MIC [6, 10] [µM] | MBC ([6]; MRSA strain 258, ST239) [µM] | MIC [6, 11] [µM] | further results
1 | CCOC(=O)C1=C(c2ccccc2)N=c2sc(=Cc3ccc(-c4cccc(C(=O)O)c4)o3)c(=O)n2C1c1ccc(F)cc1 (centres unmarked) [H5-32, 2-[5-(3-carboxy-phenyl)-furan-2-ylmethylene]-5-(4-fluoro-phenyl)-3-oxo-7-phenyl-2,3-dihydro-5H-thiazolo[3,2-a]pyrimidine-6-carboxylic acid ethyl ester] | displayed anti-bacterial activities | 3 | > 200 | 0.24 ± 0.05 | 0.15 ± 0.05 | 66.50 | 40.338 ± 5.03 | 20.321 ± 4.66 | 100 (≈ 59.5 µg/mL) | 3.13 (≈ 1.86 µg/mL) | 100 (≈ 59.5 µg/mL) | 3.13 (≈ 1.86 µg/mL) | 50 (≈ 29.7 µg/mL) | 3.13 (≈ 1.86 µg/mL) | 100 (≈ 59.5 µg/mL) | 6.25 (≈ 3.72 µg/mL) | 50 (≈ 29.7 µg/mL) | 6.25 (≈ 3.72 µg/mL) | 200 (≈ 119 µg/mL) | 3.13 (≈ 1.86 µg/mL) | MBC ([6]; MRSA strain 260, ST764): 100 µM (≈ 59.5 µg/mL); MIC [6, 12]: 6.25 µM (≈ 3.72 µg/mL); MIC [6, 13]: 3.13 to 6.25 µM (≈ 1.86 to 3.72 µg/mL)
2 | O=C(O)c1cccc(-c2ccc(C=c3sc4n(c3=O)C(c3ccc(F)cc3)C=C(c3ccccc3)N=4)o2)c1 (centres unmarked) [H5-33, 3-{5-[5-(4-fluoro-phenyl)-3-oxo-7-phenyl-5H-thiazolo [3,2-a]pyrimidin-2-ylidenemethyl]-furan-2-yl}-benzoic acid] | displayed anti-bacterial activities | 3 | > 200 | 0.32 ± 0.05 | 0.15 ± 0.06 | 88.4 | 73.684 ± 5.56 | 9.669 ± 3.64 | 12.5 (≈ 6.53 µg/mL) | 3.13 (≈ 1.64 µg/mL) | 200 (≈ 105 µg/mL) | 6.25 (≈ 3.27 µg/mL) | 50 (≈ 26.1 µg/mL) | 6.25 (≈ 3.27 µg/mL) | 200 (≈ 105 µg/mL) | 6.25 (≈ 3.27 µg/mL) | 200 (≈ 105 µg/mL) | 6.25 (≈ 3.27 µg/mL) | 200 (≈ 105 µg/mL) | 6.25 (≈ 3.27 µg/mL) | MBC ([6]; MRSA strain 260, ST764): 200 µM (≈ 105 µg/mL); MIC [6, 12]: 6.25 µM (≈ 3.27 µg/mL); MIC [6, 13]: 3.13 to 6.25 µM (≈ 1.64 to 3.27 µg/mL)
3 | CCOC(=O)C1=C(c2ccccc2)N=c2sc(=Cc3ccc(-c4ccc(C(=O)O)cc4)o3)c(=O)n2C1c1ccc(Cl)cc1 (centres unmarked) [H5-34, 2-[5-(4-carboxy-phenyl)-furan-2-ylmethylene]-5-(4-chloro-phenyl)-3-oxo-7-phenyl-2,3-dihydro-5H-thiazolo[3,2-a]pyrimidine-6-carboxylic acid ethyl ester] | displayed anti-bacterial activities | 3 | > 200 | 0.19 ± 0.01 | 0.22 ± 0.57 | 38.80 | 39.578 ± 4.74 | 62.165 ± 6.71 | 25 (≈ 15.3 µg/mL) | 3.13 (≈ 1.91 µg/mL) | 200 (≈ 122 µg/mL) | 3.13 (≈ 1.91 µg/mL) | 50 (≈ 30.6 µg/mL) | 6.25 (≈ 3.82 µg/mL) | 200 (≈ 122 µg/mL) | 6.25 (≈ 3.82 µg/mL) | 100 (≈ 61.1 µg/mL) | 6.25 (≈ 3.82 µg/mL) | 200 (≈ 122 µg/mL) | 6.25 (≈ 3.82 µg/mL) | MBC ([6]; MRSA strain 260, ST764): 200 µM (≈ 122 µg/mL); MIC [6, 12]: 6.25 µM (≈ 3.82 µg/mL); MIC [6, 13]: 3.13 to 6.25 µM (≈ 1.91 to 3.82 µg/mL)
4 | CCOC(=O)C1=C(c2ccccc2)N=c2sc(=Cc3ccc(-c4ccc(C(=O)O)cc4)o3)c(=O)n2C1c1ccc(F)cc1 (centres unmarked) [H5-35, 2-[5-(4-carboxy-phenyl)-furan-2-ylmethylene]-5-(4-fluoro-phenyl)-3-oxo-7-phenyl-2,3-dihydro-5H-thiazolo[3,2-a]pyrimidine-6-carboxylic acid ethyl ester] | displayed anti-bacterial activities | 3 | > 200 | 0.27 ± 0.1 | 0.17 ± 0.05 | 71.7 | 41.253 ± 5.31 | 16.283 ± 4.75 | 12.5 (≈ 7.43 µg/mL) | 3.13 (≈ 1.86 µg/mL) | 200 (≈ 119 µg/mL) | 3.13 (≈ 1.86 µg/mL) | 50 (≈ 29.7 µg/mL) | 6.25 (≈ 3.72 µg/mL) | 200 (≈ 119 µg/mL) | 6.25 (≈ 3.72 µg/mL) | 100 (≈ 59.5 µg/mL) | 6.25 (≈ 3.72 µg/mL) | 200 (≈ 119 µg/mL) | 6.25 (≈ 3.72 µg/mL) | MBC ([6]; MRSA strain 260, ST764): 200 µM (≈ 119 µg/mL); MIC [6, 12]: 6.25 µM (≈ 3.72 µg/mL); MIC [6, 13]: 3.13 to 6.25 µM (≈ 1.86 to 3.72 µg/mL)
